Key:
[1] = target: CYP3A4 (double-labeled (C64/C468)-DY/ER) (Homo sapiens, UniProt P08684, form not given/S18F); assay: Steady-state LRET titration (delayed emission); format: binding; conditions: human, purified double-labeled CYP3A4 (C64/C468)-DY/ER protein, pH 7.4; (C64/C468)-DY/ER; LRET titration; read-out: K d, steady-state fluorescence
Procedure: (§1) All absorbance and fluorescence assays (including the time-resolved fluorescence measurements) were performed at a protein concentration ≤1 µM at 25°C with continuous stirring. Absorbance spectra were recorded with an S2000 rapid scanning CCD spectrometer (Ocean Optics). Ligand binding assays were done in 100 mM Na-Hepes buffer, pH 7.4, containing 0.5 mM EDTA.
(§2) Fluorescence-based ligand binding assays were done under anaerobic conditions. Anaerobiosis was achieved using an oxygen-scavenging system consisting of protecatechuate-3,4-dioxygenase (0.5 units/ml) and 5 mM protocatechuic acid. The steady state and time-resolved phosphorescence measurements were performed with the use of a Cary Eclipse fluorescence spectrophotometer (Varian/Agilent Technologies). The excitation wavelength was set to 540 nm. Spectra were taken from 650 to 860 nm with 100 µs delay.
(§3) Quantitative interpretation of LRET results was also based on the use of PCA applied to a series of emission spectra normalized on integral intensity. […] Intensity of the donor and acceptor fluorescence obtained in this way were used in determination of the efficiency of steady-state LRET using the equation [drawing 1] (Eq.1) where I ad is emission intensity of the acceptor, I da is the residual donor emission in the presence of acceptor (I da), Φ a and Φ d are the quantum yield of the fluorescence of acceptor and the quantum yield of the phosphorescence of donor, respectively.
(§4) Distances were calculated using the equation: [drawing 3] (Eq.3) where R 0 is the Förster distance, and R is the distance between the donor and acceptor. R 0 was calculated with the use of PhotoChemCad software. In these calculations, we used the values of the orientation factor (κ^2) and the refractive index (n) of 0.667 and 1.4, respectively.
(§5) When fitting the results of titration experiments, where the changes in the monitored signal A S (fraction of the enzyme in the high-spin state, intensity or the lifetime of the donor phosphorescence at a given substrate concentration) were assumed to be proportional to [ES], this equation was complemented with the offset A 0 and the scaling factor A max to yield the following relationship: [drawing 5] (Eq.5)

[2] = target: CYP3A4 (double-labeled (C64/C468)-ER/DY) (Homo sapiens, UniProt P08684, form not given/S18F); assay: Steady-state LRET titration (delayed emission); format: binding; conditions: human, purified double-labeled CYP3A4 (C64/C468)-ER/DY protein, pH 7.4; (C64/C468)-ER/DY; LRET titration; read-out: K d, steady-state fluorescence
CYP3A4 (double-labeled (C64/C468)-ER/DY), sequence (P08684 13-503 S18F, form open): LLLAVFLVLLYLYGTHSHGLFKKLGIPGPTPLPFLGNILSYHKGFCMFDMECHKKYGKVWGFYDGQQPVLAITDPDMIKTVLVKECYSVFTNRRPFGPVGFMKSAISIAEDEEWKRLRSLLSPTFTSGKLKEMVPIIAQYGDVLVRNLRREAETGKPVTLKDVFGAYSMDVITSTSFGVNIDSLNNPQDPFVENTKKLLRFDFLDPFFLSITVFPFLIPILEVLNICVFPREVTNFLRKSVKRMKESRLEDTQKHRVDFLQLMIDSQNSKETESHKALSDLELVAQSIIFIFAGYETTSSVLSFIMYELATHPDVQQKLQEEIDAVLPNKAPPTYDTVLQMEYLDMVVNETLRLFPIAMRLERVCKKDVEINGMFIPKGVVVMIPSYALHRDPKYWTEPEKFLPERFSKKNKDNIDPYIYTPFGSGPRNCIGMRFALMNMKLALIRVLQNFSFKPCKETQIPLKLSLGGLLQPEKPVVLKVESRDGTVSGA
Procedure: as §1, §2, §3, §4, §5

[3] = target: T1, double-labeled CYP3A4 (C64/C468)-DY/ER (Homo sapiens, UniProt P08684, S18F, form not given); assay: Steady-state LRET titration (delayed emission); format: binding
T1 sequence (P08684 13-503 S18F, form open): as above
Procedure: as §1, §2, §3, §4, §5

[4] = target: T2, double-labeled CYP3A4 (C64/C468)-ER/DY (Homo sapiens, UniProt P08684, S18F, form not given); assay: Steady-state LRET titration (delayed emission); format: binding
T2 sequence (P08684 13-503 S18F, form open): as above
Procedure: as §1, §2, §3, §4, §5

[5] = target: T3, double-labeled CYP3A4 C377/C468-DY/ER (Homo sapiens, UniProt P08684, S18F, form not given); assay: Steady-state LRET titration (delayed emission); format: binding; conditions: Table S2, protein C377/C468-ER/DY
T3 sequence (P08684 13-503 S18F, form open): as above
Procedure: as §1, §2, §3, §4, §5

[6] = target: T4, double-labeled CYP3A4 C64/C121-DY/ER (Homo sapiens, UniProt P08684, A121C/C239S/C377S/C468A/C98S/S18F); assay: Steady-state LRET titration (delayed emission); conditions: Table S2; protein C64/C121-ER/DY; same ligand concentrations
T4 sequence (P08684 with tags, fused parts or gaps S18F/C98S/A121C/C239S/C377S/C468A limits assumed): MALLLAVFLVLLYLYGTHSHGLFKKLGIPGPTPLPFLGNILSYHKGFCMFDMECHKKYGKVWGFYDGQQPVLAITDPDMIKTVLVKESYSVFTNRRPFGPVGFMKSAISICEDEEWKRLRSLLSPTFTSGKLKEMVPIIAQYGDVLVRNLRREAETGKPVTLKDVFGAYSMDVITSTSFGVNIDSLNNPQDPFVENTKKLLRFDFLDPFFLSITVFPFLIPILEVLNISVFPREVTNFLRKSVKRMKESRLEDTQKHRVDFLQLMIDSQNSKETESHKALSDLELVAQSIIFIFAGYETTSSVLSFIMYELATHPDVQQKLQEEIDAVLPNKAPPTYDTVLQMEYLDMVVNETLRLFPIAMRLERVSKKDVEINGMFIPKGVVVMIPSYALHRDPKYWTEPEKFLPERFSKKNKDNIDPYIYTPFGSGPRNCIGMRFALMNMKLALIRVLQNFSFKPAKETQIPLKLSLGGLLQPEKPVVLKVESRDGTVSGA
Procedure: as §1, §2, §3, §4, §5

[7] = target: T1, double-labeled CYP3A4 (C64/C468)-DY/ER; assay: Time-resolved LRET (phosphorescence lifetime measurements)
Description: (§6) The excitation wavelength was set to 540 nm.

[8] = target: T2, double-labeled CYP3A4 (C64/C468)-ER/DY; assay: as above
Description: as §6

[9] = target: T3, double-labeled CYP3A4 C377/C468-DY/ER; assay: as above
Description: as §6

[10] = target: T4, double-labeled CYP3A4 C64/C121-DY/ER; assay: as above; conditions: same ligand concentrations
Procedure: as §1, §2
The treatment of the time-resolved decay traces was performed using a bi-exponential approximation. The efficiency of time-resolved LRET was calculated using the equation [drawing 2] (Eq.2)
In this equation τda and τd designate the average lifetime of the excited state of the donor in the presence and absence of the acceptor, respectively. These average lifetimes are determined as τ = α1τ1+α2τ2, where τ1,2 and α1,2 stay for the lifetime and the relative amplitude of each of the two exponential terms. In our calculations of the lifetime in double-labeled C64/C468, C377/C468 and C64/C121 proteins we used the lifetimes of phosphorescence measured with the respective proteins labeled with ERIA at a label:protein ratio 2∶1 as the estimates of τd.
as §4

[11] = Table S2, C64/C468-DY/ER, 1-PB 40 µM, ANF 100 µM, BCT 2.5 µM, cholesterol 100 µM, testosterone 100 µM
[12] = Table S2, C64/C468-DY/ER, same ligand concentrations
[13] = Table S2, C64/C468-ER/DY, 1-PB 40 µM, ANF 100 µM, BCT 2.5 µM, cholesterol 100 µM, testosterone 100 µM
[14] = Table S2, C64/C468-ER/DY, same ligand concentrations
[15] = (C64/C468)-DY/ER, nearly-saturating ligand: ANF 100 µM, bromocriptine 2.5 µM, cholesterol 50 µM, testosterone 100 µM
[16] = Table S1, (C64/C468)-DY/ER, same ligand concentrations
[17] = (C64/C468)-ER/DY, nearly-saturating ligand: ANF 100 µM, bromocriptine 2.5 µM, cholesterol 50 µM, testosterone 100 µM
[18] = Table S1, (C64/C468)-ER/DY, same ligand concentrations
[19] = Table S1, protein (C377/C468)-ER/DY, same ligand concentrations
[20] = Table S2, protein C377/C468-ER/DY, same ligand concentrations
[21] = Table S1, protein (C64/C121)-ER/DY
[22] = Table S2, protein C64/C121-ER/DY

CYP3A4 (double-labeled (C64/C468)-DY/ER), sequence (P08684 13-503 S18F, form open): as the sequence (P08684 13-503 S18F, form open) above

## CC(C)CCC[C@@H](C)[C@H]1CC[C@H]2[C@@H]3CC=C4C[C@@H](O)CC[C@]4(C)[C@H]3CC[C@]12C [Cholesterol, cholesterol]
[1]
  Kd: 6.5 ± 1.1 µM
[2]
  Kd: 7.7 ± 0.9 µM
[3]; (C64/C468)-DY/ER
  ΔR (change in interprobe distance), steady-state fluorescence: 5.9±2.0 Å
[3]; (C64/C468)-DY/ER, from maximal relative change in donor intensity
  ΔE (change in LRET efficiency), steady-state fluorescence: −11±1%
[3]; [11]
  E (LRET efficiency with ligand), steady-state measurements: 24 ± 1%
[3]; [12]
  R (interprobe distance with ligand), steady-state measurements: 40.8 ± 2.0 Å
  ΔR, steady-state measurements: 5.9 ± 2.0 Å
[4]; (C64/C468)-ER/DY
  ΔR (change in interprobe distance), steady-state fluorescence: 3.5±0.7 Å
[4]; (C64/C468)-ER/DY, from maximal relative change in donor intensity
  ΔE (change in LRET efficiency), steady-state fluorescence: −10±5%
[4]; [13]
  E (LRET efficiency with ligand), steady-state measurements: 19 ± 1%
[4]; [14]
  R (interprobe distance with ligand), steady-state measurements: 42.6 ± 0.7 Å
  ΔR, steady-state measurements: 3.5 ± 0.7 Å
[5]; 1-PB 40 µM, ANF 100 µM, BCT 2.5 µM, cholesterol 100 µM, testosterone 100 µM
  E (LRET efficiency with ligand), steady-state measurements: 14 ± 0%
[5]; same ligand concentrations
  R (interprobe distance with ligand), steady-state measurements: 45.2 ± 0.1 Å
  ΔR, steady-state measurements: 0.5 ± 0.1 Å
[6]
  R (interprobe distance with ligand), steady-state measurements: 43.6 ± 0.5 Å
  ΔR, steady-state measurements: 1.0 ± 0.5 Å
[7]; [15]
  ΔELT (change in LRET efficiency), lifetime measurements: −5.9±3%
  ΔR (change in interprobe distance), lifetime measurements: 1.6±1.0 Å
[7]; Table S1, (C64/C468)-DY/ER, 1-PB 40 µM, ANF 100 µM, BCT 2.5 µM, cholesterol 100 µM, testosterone 100 µM, bi-exponential fit
  τ1 (phosphorescence decay time with ligand): 59 ± 1 µs
[7]; [16]
  F1 (fraction of first exponential): 43 ± 2%
  τ2 (phosphorescence decay time with ligand): 221 ± 1 µs
  τav (average phosphorescence lifetime with ligand): 152 ± 6 µs
[7]; [11]
  E (LRET efficiency with ligand), lifetime measurements: 35 ± 3%
[7]; [12]
  R (interprobe distance with ligand), lifetime measurements: 38.3 ± 0.7 Å
  ΔR, lifetime measurements: 1.6 ± 0.7 Å
[8]; [17]
  ΔELT (change in LRET efficiency), lifetime measurements: −16.6±1%
  ΔR (change in interprobe distance), lifetime measurements: 4.8±0.2 Å
[8]; Table S1, (C64/C468)-ER/DY, 1-PB 40 µM, ANF 100 µM, BCT 2.5 µM, cholesterol 100 µM, testosterone 100 µM, bi-exponential fit
  τ1 (phosphorescence decay time with ligand): 79 ± 1 µs
[8]; [18]
  F1 (fraction of first exponential): 53 ± 7%
  τ2 (phosphorescence decay time with ligand): 268 ± 2 µs
  τav (average phosphorescence lifetime with ligand): 173 ± 1 µs
[8]; [13]
  E (LRET efficiency with ligand), lifetime measurements: 26 ± 1%
[8]; [14]
  R (interprobe distance with ligand), lifetime measurements: 41.1± 0.2 Å
  ΔR, lifetime measurements: 4.8 ± 0.2 Å
[9]; Table S1, protein (C377/C468)-ER/DY, 1-PB 40 µM, ANF 100 µM, BCT 2.5 µM, cholesterol 100 µM, testosterone 100 µM, bi-exponential fit
  τ1 (phosphorescence decay time with ligand): 38 ± 1 µs
[9]; [19]
  F1 (fraction of first exponential): 23 ± 5%
  τ2 (phosphorescence decay time with ligand): 163 ± 8 µs
  τav (average phosphorescence lifetime with ligand): 134 ± 3 µs
[9]; Table S2, protein C377/C468-ER/DY, 1-PB 40 µM, ANF 100 µM, BCT 2.5 µM, cholesterol 100 µM, testosterone 100 µM
  E (LRET efficiency with ligand), lifetime measurements: 26 ± 2%
[9]; [20]
  R (interprobe distance with ligand), lifetime measurements: 41.0 ± 0.6 Å
  ΔR, lifetime measurements: 4.2 ± 0.6 Å
[10]; [21]
  F1 (fraction of first exponential): 44 ± 3%
  τ2 (phosphorescence decay time with ligand): 222 ± 8 µs
  τav (average phosphorescence lifetime with ligand): 154 ± 1 µs
[10]; [22]
  R (interprobe distance with ligand), lifetime measurements: 35.8 ± 0.1 Å
  ΔR, lifetime measurements: 0.8 ± 0.1 Å

— article PMC3871636 (PLoS ONE, 2013)
